These results are taken from ChEMBL document CHEMBL1201862, “PubChem BioAssay data set” (2004).

Active and inactive are the calls of the source.

In experiment [1] the target is Glycogen synthase kinase-3 alpha (Homo sapiens, UniProt P49840). The class given is functional.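 Further: GSK3A result taken from a broad kinome-wide kinase panel.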
Experiment [2] deals with Serine/threonine-protein kinase MRCK alpha (Homo sapiens, UniProt Q5VT25). The class given is functional.
The target in experiment [3] is Glycogen synthase kinase-3 beta (Homo sapiens, UniProt P49841). The class given is functional.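 Further: value comes from a broad kinome profiling panel, with GSK3B as the panel member.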
Glycogen synthase kinase-3 beta, sequence (P49841 whole entry): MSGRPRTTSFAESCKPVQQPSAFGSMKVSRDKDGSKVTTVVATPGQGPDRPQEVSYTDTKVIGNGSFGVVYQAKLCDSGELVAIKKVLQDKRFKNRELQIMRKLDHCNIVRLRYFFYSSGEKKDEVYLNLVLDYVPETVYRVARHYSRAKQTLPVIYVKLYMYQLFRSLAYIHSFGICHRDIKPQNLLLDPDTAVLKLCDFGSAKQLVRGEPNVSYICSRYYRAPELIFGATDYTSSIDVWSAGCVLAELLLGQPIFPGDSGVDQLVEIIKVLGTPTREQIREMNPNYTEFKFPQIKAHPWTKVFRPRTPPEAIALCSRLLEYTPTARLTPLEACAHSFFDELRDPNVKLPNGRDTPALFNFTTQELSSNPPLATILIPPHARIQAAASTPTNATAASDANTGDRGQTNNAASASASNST
Experiment [4] addresses Potassium voltage-gated channel subfamily KQT member 2 (Rattus norvegicus, UniProt O88943). Description: blockers of KCNQ2 channel current – cell-based, automated electrophysiology, set II, rat KCNQ2, dose response (AID 588637). In kind it is functional.
The target of experiment [5] is High affinity nerve growth factor receptor (Homo sapiens, UniProt P04629). In kind it is functional.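 Further: NTRK1 tested as one member of a kinome-wide profiling panel.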
Experiment [6] has as its target Cell division cycle 7-related protein kinase (Homo sapiens, UniProt O00311). The class given is functional.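 Further: value obtained from a kinome-wide kinase panel.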
The target of experiment [7] is Tyrosine-protein phosphatase non-receptor type 11 (Homo sapiens, UniProt Q06124). Nature of the experiment: PTPN11 enzyme inhibitors – biochemical, selectivity assay for STEP inhibitor project, dose response (AID 602367). In kind it is functional. To be noted: read-out: IC50_Mean.
Tyrosine-protein phosphatase non-receptor type 11, sequence (Q06124 whole entry): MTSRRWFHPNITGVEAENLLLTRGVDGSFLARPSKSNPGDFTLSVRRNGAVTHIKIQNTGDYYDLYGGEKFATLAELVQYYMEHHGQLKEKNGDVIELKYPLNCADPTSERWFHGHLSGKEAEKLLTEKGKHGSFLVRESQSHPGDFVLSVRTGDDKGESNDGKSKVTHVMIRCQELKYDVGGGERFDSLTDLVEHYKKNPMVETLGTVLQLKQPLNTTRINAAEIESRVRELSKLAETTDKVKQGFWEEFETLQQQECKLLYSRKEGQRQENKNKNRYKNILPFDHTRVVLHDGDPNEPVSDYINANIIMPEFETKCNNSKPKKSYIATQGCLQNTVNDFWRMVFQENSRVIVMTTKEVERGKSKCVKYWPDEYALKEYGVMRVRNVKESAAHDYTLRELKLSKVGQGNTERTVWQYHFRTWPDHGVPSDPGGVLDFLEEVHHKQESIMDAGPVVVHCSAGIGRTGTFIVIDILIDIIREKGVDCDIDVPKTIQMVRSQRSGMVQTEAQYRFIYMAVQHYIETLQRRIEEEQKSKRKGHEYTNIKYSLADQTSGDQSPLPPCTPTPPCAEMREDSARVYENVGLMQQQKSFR
In experiment [8] the target is Tyrosine-protein phosphatase non-receptor type 5 (Homo sapiens, UniProt P54829). Nature of the experiment: PTPN5 enzyme inhibition – biochemical, fluorescence intensity, uHTS hits, confirmation (AID 602372). The conditions noted are these: read-out: IC50_Mean. The class given is functional.
The target in experiment [9] is T1, Carboxy-terminal domain RNA polymerase II polypeptide A small phosphatase 1 (Homo sapiens, UniProt Q9GZU7).
T1 sequence (Q9GZU7 whole entry): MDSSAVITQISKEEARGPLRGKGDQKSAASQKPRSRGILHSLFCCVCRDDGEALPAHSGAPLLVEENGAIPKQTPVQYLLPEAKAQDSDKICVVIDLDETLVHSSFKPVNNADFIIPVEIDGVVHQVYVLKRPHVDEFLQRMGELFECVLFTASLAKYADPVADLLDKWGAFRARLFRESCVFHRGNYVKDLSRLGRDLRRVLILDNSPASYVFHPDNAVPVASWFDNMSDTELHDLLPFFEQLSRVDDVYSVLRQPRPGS
Description: CTDSP1 inhibitors, concentration-response, biochemical, absorbance readout, ultra-high-throughput screen actives (AID 540297). In kind it is functional.

In experiment [10] the target is Dual specificity protein phosphatase 3 (Homo sapiens, UniProt P51452). Nature of the experiment: VHR phosphatase inhibition, dose response, selectivity assay for STEP inhibitor project, biochemical (AID 602374). The class given is functional. To be noted: read-out: IC50_Mean.
The test system of experiment [11] is Streptococcus sp. 'group A'. Description: Streptococcus pyogenes SK(-)GAS viability under kanamycin – luminescence, BacTiterGlo, confirmation, counter-screen for streptokinase expression inhibitor project, dose response (AID 1900). In kind it is functional, organism-based.
Experiment [12] can be described thus: Trypanosoma cruzi growth suppression in host cells – NIH3T3 host cells, beta-gal luminescence, confirmation (AID 2044).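 Further: intracellular parasites grown in NIH/3T3 mouse fibroblasts as host cells; luminescent beta-galactosidase reporter signal from transgenic T. cruzi replicating inside host cells; inhibitors lower the luminescence signal.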 The class given is functional, cell-based.
A further experiment deals with HEK293. Description: EBV LMP1 TES2 canonical NF-kB signalling blockers – cell-based, HEK293, luciferase, cherry-pick, dose response (AID 588343). In kind it is functional. The conditions noted are these: Homo sapiens.
In the next experiment the target is T2, Streptokinase A (Streptococcus pyogenes serotype M1, UniProt P10520).
T2 sequence (P10520 whole entry): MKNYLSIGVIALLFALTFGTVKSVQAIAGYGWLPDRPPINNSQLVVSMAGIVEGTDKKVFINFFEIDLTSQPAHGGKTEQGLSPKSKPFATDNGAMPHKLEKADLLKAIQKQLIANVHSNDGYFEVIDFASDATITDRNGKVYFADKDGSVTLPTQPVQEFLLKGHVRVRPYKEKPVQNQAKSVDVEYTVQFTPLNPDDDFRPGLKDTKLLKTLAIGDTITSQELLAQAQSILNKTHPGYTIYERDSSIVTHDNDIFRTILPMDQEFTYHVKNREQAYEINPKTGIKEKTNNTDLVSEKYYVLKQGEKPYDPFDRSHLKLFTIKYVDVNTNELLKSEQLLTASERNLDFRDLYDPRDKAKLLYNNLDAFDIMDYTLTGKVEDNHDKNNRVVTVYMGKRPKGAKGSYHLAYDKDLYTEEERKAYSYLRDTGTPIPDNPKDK
Nature of the experiment: viability-normalized secreted streptokinase activity reduction – plasminogen activation absorbance, OD405, dose response (AID 1914).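 Further: secreted streptokinase activity via plasminogen activation per viability signal from cell pellet.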 The class given is functional, Streptococcus pyogenes M1 GAS.

The next experiment concerns Streptococcus. Description: GAS UMAA2166 growth inhibition – luminescence, BacTiterGlo, counter-screen for streptokinase expression inhibitor project, dose response (AID 1915).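 Further: potency for reduction of bacterial viability or growth.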 The class given is functional, organism-based. (In general: The purpose of a counterscreen is to sort out artefacts and off-target activity.)
A short description of experiment [13]: NIH3T3 cell viability loss – ATP luminescence, mouse fibroblasts, counter-screen, dose response (AID 2010).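 Further: cells exposed to compound for about 90 hours before reading.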 The class given is functional, cell-based.
The target in experiment [14] is Latent membrane protein 1 (Human herpesvirus 4 (strain B95-8), UniProt P03230). Description: LMP1 TES1 pathway selectivity over dsRED control – imaging, HEK293T, dual-color eGFP/dsRED, cherry-picks, selectivity assay for LMP1 NF-kB inhibitor project, dose response (AID 588398). In kind it is functional, cell-based.
Latent membrane protein 1, sequence (P03230 whole entry): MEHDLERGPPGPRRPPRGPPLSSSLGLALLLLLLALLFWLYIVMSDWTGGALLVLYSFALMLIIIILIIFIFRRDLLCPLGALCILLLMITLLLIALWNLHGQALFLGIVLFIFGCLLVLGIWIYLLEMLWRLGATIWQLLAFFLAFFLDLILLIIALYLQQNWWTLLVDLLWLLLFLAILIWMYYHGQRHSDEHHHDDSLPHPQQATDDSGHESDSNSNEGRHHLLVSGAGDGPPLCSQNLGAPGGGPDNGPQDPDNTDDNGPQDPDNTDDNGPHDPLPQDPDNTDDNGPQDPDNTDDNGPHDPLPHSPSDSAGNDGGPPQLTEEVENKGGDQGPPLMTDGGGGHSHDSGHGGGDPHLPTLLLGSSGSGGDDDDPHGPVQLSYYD

Cell division cycle 7-related protein kinase, sequence (O00311 whole entry): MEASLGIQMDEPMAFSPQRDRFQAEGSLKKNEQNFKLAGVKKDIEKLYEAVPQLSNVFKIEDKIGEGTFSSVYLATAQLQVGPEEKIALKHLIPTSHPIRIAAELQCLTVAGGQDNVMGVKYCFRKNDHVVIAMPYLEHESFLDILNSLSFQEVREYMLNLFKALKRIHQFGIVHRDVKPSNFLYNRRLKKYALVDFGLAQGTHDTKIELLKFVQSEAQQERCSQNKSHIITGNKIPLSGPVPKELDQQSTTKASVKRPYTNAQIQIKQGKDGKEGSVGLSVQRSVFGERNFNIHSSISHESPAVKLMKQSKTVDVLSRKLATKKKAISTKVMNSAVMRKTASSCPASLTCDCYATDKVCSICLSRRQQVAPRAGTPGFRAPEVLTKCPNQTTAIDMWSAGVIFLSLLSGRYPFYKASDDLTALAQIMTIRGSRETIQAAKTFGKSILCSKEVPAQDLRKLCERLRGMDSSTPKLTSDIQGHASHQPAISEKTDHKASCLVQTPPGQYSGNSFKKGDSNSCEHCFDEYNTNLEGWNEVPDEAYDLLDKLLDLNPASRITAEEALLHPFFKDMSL
Glycogen synthase kinase-3 alpha, sequence (P49840 whole entry): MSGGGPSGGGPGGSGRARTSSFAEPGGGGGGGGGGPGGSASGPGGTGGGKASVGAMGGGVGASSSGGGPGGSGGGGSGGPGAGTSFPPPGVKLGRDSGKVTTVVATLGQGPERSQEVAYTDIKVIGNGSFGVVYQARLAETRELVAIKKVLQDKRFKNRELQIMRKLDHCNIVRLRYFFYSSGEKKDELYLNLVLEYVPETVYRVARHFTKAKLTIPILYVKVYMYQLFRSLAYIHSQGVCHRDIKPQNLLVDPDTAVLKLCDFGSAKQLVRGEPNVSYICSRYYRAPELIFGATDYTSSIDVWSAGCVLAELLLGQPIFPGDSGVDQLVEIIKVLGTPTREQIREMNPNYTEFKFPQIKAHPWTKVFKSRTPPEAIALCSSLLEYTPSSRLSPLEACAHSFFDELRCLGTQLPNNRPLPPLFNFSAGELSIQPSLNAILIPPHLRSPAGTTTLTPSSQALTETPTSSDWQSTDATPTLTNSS
Potassium voltage-gated channel subfamily KQT member 2, sequence (O88943 whole entry): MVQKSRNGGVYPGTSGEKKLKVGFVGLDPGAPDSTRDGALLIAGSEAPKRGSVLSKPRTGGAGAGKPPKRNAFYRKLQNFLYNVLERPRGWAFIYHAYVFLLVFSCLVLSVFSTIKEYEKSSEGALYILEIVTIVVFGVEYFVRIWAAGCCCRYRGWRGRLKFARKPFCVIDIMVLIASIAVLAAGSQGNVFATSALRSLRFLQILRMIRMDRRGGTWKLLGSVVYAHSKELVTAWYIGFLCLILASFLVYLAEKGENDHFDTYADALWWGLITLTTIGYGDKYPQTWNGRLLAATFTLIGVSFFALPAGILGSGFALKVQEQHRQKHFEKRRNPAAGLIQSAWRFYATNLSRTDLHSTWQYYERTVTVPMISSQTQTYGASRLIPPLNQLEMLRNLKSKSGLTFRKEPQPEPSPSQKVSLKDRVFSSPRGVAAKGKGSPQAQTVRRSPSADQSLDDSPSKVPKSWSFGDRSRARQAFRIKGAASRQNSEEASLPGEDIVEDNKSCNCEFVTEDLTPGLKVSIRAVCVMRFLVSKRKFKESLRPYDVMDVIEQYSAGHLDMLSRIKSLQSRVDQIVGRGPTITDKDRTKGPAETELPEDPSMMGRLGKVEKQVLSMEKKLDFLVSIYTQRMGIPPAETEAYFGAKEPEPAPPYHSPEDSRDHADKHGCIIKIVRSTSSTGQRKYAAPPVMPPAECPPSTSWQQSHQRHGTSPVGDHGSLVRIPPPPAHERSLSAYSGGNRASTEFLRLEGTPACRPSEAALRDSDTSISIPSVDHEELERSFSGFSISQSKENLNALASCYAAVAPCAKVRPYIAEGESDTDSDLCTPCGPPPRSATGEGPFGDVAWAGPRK
Serine/threonine-protein kinase MRCK alpha, sequence (Q5VT25 whole entry): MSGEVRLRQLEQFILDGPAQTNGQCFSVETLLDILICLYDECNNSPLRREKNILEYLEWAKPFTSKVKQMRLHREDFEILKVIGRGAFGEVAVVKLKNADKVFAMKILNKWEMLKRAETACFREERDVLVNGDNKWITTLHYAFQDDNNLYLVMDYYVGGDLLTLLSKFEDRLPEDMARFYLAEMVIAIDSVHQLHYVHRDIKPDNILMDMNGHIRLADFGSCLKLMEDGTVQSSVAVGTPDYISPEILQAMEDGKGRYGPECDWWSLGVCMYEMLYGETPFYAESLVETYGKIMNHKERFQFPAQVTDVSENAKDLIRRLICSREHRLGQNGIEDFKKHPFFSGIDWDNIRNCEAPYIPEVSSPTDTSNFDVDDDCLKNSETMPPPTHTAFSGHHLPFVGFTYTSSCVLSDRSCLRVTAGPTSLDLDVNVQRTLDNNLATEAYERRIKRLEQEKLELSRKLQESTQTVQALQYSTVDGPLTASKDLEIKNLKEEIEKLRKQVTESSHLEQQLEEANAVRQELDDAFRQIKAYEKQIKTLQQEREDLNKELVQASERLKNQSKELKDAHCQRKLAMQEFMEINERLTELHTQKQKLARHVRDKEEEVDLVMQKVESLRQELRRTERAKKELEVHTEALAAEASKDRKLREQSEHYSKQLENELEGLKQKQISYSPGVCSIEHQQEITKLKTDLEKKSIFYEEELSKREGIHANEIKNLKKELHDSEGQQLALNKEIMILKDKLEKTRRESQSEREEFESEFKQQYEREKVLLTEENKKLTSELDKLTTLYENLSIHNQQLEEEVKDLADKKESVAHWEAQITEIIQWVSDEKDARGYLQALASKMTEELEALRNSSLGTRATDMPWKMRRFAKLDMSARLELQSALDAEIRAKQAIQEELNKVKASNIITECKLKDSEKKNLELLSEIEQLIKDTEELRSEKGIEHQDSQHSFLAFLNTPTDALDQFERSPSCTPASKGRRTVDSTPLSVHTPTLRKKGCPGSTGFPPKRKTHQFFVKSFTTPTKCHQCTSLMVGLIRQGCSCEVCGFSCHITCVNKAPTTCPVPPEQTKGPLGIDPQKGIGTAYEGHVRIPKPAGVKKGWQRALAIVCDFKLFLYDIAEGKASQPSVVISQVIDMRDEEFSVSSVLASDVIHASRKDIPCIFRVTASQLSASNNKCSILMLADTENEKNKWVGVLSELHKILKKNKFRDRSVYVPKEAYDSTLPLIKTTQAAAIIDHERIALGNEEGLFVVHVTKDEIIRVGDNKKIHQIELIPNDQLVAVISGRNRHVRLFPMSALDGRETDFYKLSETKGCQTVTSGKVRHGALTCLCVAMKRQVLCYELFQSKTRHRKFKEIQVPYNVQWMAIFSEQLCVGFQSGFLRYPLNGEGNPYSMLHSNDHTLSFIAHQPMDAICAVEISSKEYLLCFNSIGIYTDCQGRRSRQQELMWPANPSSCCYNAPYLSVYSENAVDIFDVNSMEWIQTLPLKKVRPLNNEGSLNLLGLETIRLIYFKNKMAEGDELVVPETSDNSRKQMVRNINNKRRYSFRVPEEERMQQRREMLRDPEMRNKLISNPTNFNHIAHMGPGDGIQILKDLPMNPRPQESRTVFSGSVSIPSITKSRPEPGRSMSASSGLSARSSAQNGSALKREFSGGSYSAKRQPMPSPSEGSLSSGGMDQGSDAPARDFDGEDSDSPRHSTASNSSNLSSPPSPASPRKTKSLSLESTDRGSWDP

A word on the Ki: it is a measure of affinity in units of concentration, obtained from inhibition or displacement. For the compound `CC(=O)Nc1nonc1-n1nnc(C(=O)NN=Cc2cccs2)c1-c1ccccc1`, the inhibition constant (Ki) in experiment [1] is 3.16 µM (active); in [2] it was 10 µM (active); in experiment [3] it was 6.31 µM (active).

`Cc1csc2nc(CSc3ccc(Cl)cc3)cn12`: the IC50 in experiment [4] was 4.2 µM (active).

In the case of `NC(=O)c1ccc(-c2c[nH]c3nc(N)nc(NCc4c(F)cccc4F)c23)cc1`, the results for the Ki in experiment [5] and in experiment [6] were 2.51 µM (active) and 0.1 µM (active), respectively.

With `Cc1c(CC(=O)O)c(=O)oc2c(C)c(OCc3ccccc3Br)ccc12`, the IC50 in experiment [7] was 7.43 µM (active); in experiment [8], 13.4 µM (active); in [9], 3.92 µM (active); in [10], 6.67 µM (active).

As a reminder, the EC50 is the concentration at which the effect is half-maximal. One may read the AC50 as the midpoint of the concentration-response curve, whichever way the signal moves. Consider `CCCc1ccc(-c2cc(C(=O)N/N=C/c3ccc([N+](=O)[O-])o3)c3ccccc3n2)cc1`, for which the EC50 in experiment [11] is 2.75 µM (active); in [12] it was 0.194 µM (active); at Streptokinase A, > 150 µM (not active); in the experiment on Streptococcus it was 2.59 µM (active); in experiment [13], 8.91 µM (active). Besides, the AC50 was 2.89 µM (active) in the experiment on HEK293 and 112 µM (active) in experiment [14].
